Laboratory results from paper PMC10830684, “Effect of Oregon grape root extracts on P-glycoprotein mediated transport in in vitro cell lines” (Journal of Pharmacy & Pharmaceutical Sciences, 2024).
Structures can show the parent of a compound that is named as a salt. Where two headings read alike, the source gives them in different places.

Key:
[1] = test system: P-gp; set-up: method as in PMID 12434406; settings: Caco-2 cells; inhibitor 1 mM; cited from earlier work
[2] = biological target: T1, P-glycoprotein (MDR1) (Homo sapiens, UniProt P08183); assay: Transepithelial transport of berberine and berbamine across MDCKII-MDR1 cells; assay type: in vitro ADME; settings: dog, MDCK-MDR1
T1 construct: expressed in transfected cells; host or cells: MDCKII-MDR1 (Madin-Darby canine kidney II cells overexpressing MDR1)
Experimental: Transport of ^3H-CsA and ^3H-digoxin (0.5 µM and 1.0 µCi), MDR1 substrates, were performed using transport buffer consisting of HBSS with 10 mM HEPES and 25 mM D-glucose at a pH of 6.8 for the apical (A) compartment and 7.4 for the basolateral (B) compartment. Experiments were performed at 37°C, 5% CO2, and 95% relative humidity. Cells in the Transwell® inserts were washed 3 times with a transport buffer and allowed to equilibrate for 30 min prior to the addition of test compounds. […] To evaluate the efflux mechanism involved with berberine and berbamine, 100 µM of berberine and berbamine were placed in the donor chamber and 100 µL samples were collected in the receiver chamber at 0, 0.5, 1.0, 1.5, 2.0, 2.5, and 3.0 h and analyzed by HPLC. Each experiment was performed in duplicate and repeated for each condition tested. […] A 100 µL sample was taken from the donor chamber at 3 h in order to calculate the mass balance of radioactivity to determine if adsorption to the cell culture transport apparatus had occurred. Each sample was placed in 0.9 mL of scintillation fluor (Cytoscint ES, ICN, Cosa Mesa, CA, USA) and read on a Beckman LS 6500 (Palo Alto, CA, USA) scintillation counter for ^3H activity. […]
The apparent permeability (Papp) was calculated using the following equation [40]: Papp=dQ/dt×1/A×C0 […]

[3] = test system: Caco-2 cells; assay: LDH leakage cytotoxicity assay in Caco-2 cells; assay type: cell-based, human; settings: 300 µM, 4 hours exposure
From the text: (§1) We initiated cytotoxicity experiments with the Caco-2, MDCKII-MDR1 and MDCKII-wild type cells on Day 7 (Caco-2) and Day 4 (MDCKII-MDR1 and MDCKII-wild type) after the initial plating of the cells at 2.5 × 10^3 cells/well in 48-well plates (Becton Dickinson, Franklin Lakes, NJ, USA). See details of preparation for the cytotoxicity experiments in Supplementary Material.
(§2) We initiated cytotoxicity experiments with the Caco-2, MDCKII-MDR1 and MDCKII-wild type cells on Day 7 (Caco-2) and Day 4 (MDCKII-MDR1 and MDCKII-wild type) after the initial plating of the cells at 2.5x10^3 cells/well in 48-well plates (Becton Dickinson, Franklin Lakes, NJ, USA). Stock solutions of 10 mM berberine or berbamine were prepared by dissolving the compounds in DMSO (berberine) or distilled water (berbamine).
(§3) The LDH enzymatic activities were assayed using the method of Mitchell et al.(1). […] Enzyme leakage into the medium was expressed as the percentage of total cellular LDH. The MTT (3-(4,5-dimethythiazole-2yl)-2,5-diphenyl tetrazolium bromide) reduction assay was done according to Mosmann (2). This assay was conducted immediately with the same cells used in the LDH study. The results were expressed as the percentage of negative controls.

[4] = biological target: P-glycoprotein (Homo sapiens, UniProt P08183); assay: Effect on 3H-CsA and 3H-digoxin transport in Caco-2 cells; settings: Caco-2 cells
[5] = test system: Caco-2 cells; assay: MTT cytotoxicity assay in Caco-2 cells; assay type: cell-based, human; settings: for MTT assay: 4 hours exposure
From the text: as §1, §2, §3

[6] = test system: MDCKII-MDR1 cells; assay: MTT cytotoxicity assay in MDCKII-MDR1 cells; assay type: cell-based, Canine; settings: 4 hours exposure
From the text: as §1
(§4) We initiated cytotoxicity experiments with the Caco-2, MDCKII-MDR1 and MDCKII-wild type cells on Day 7 (Caco-2) and Day 4 (MDCKII-MDR1 and MDCKII-wild type) after the initial plating of the cells at 2.5x10^3 cells/well in 48-well plates (Becton Dickinson, Franklin Lakes, NJ, USA). Stock solutions of 10 mM berberine or berbamine were prepared by dissolving the compounds in DMSO (berberine) or distilled water (berbamine). […] The final concentration of DMSO was 0.003% (v/v), 0.03% (v/v), 0.3% (v/v), 1% (v/v), 1.5% (v/v), and 3% (v/v) DMSO/culture medium for 0.3 μM, 3 μM, 30 μM, 100 μM, ,150 μM, and 300 μM, respectively. The final concentration of ethanol was 0.15% (v/v) ethanol/culture medium. Ketoconazole (75 µM) was used as a positive control and no treatment (medium alone) was used as a negative control for each experiment.
as §3

[7] = test system: MDCKII wild-type cells; assay: MTT cytotoxicity assay in MDCKII wild-type cells; assay type: cell-based, Canine; settings: MDCKII-WT cells, 4 hours exposure
From the text: as §1, §4, §3

[8] = Transepithelial transport of berberine and berbamine across Caco-2 cells; assay type: in vitro ADME, human; settings: human
Experimental: (§5) Transport of ^3H-CsA and ^3H-digoxin (0.5 µM and 1.0 µCi), MDR1 substrates, were performed using transport buffer consisting of HBSS with 10 mM HEPES and 25 mM D-glucose at a pH of 6.8 for the apical (A) compartment and 7.4 for the basolateral (B) compartment. Experiments were performed at 37°C, 5% CO2, and 95% relative humidity. Cells in the Transwell® inserts were washed 3 times with a transport buffer and allowed to equilibrate for 30 min prior to the addition of test compounds. […] To evaluate the efflux mechanism involved with berberine and berbamine, 100 µM of berberine and berbamine were placed in the donor chamber and 100 µL samples were collected in the receiver chamber at 0, 0.5, 1.0, 1.5, 2.0, 2.5, and 3.0 h and analyzed by HPLC. Each experiment was performed in duplicate and repeated for each condition tested. For experiments performed in “non-sink” conditions, 100 µL aliquots were taken from the donor and receiver chambers at the beginning and from the receiver chamber at 0.5, 1.0, 1.5, 2.0, 2.5, and 3.0 h. An equal volume of 100 µL was replaced in the chamber at each sample time point. “Non-sink” conditions were performed when less than 10% of compound is transported across cells during the transport experiment such that a concentration gradient was always present. For the “sink” condition experiments, the entire receiver volume was replaced at each time interval and a 100 µL aliquot was taken from the receiver volume for scintillation counting. A 100 µL sample was taken from the donor chamber at 3 h in order to calculate the mass balance of radioactivity to determine if adsorption to the cell culture transport apparatus had occurred. Each sample was placed in 0.9 mL of scintillation fluor (Cytoscint ES, ICN, Cosa Mesa, CA, USA) and read on a Beckman LS 6500 (Palo Alto, CA, USA) scintillation counter for ^3H activity. For berberine and berbamine analysis, 100 µL aliquot was assayed by HPLC.
(§6) The apparent permeability (Papp) was calculated using the following equation [40]: Papp=dQ/dt×1/A×C0
(§7) Where A is the surface area of the monolayer (4.71 cm^2) and C0 is the initial concentration of radiolabeled probe substrate in the donor compartment. dQ/dt is the slope of the steady-state rate constant. The efflux ratio was determined by dividing the Papp in the B to A direction by the Papp in the A to B direction: Efflux ratio=PappB to A/PappA to B
(§8) A Waters 2690 separations module with a Model 996 photodiode array detector with the Millennium 32 Chromatograph Manager version 3.0 software (Waters Corporation, Milford, MA, USA) was used for HPLC analysis. […] All the standards and samples were filtered (0.2 µm) prior to injection. Ten µL was injected onto a 250 × 4.6 mm i.d., […], Zorbax Eclipse X DB-C18 Column (Agilent Technologies, Palo Alto, CA, USA) with a 3.9 × 20 mm i.d. Symmetry® C18 guard column, with an isocratic mobile phase of 32:68 acetonitrile:buffer. The buffer consisted of 30 mM ammonium acetate and 14 mM TEA and was adjusted to pH 4.85 with acetic acid. A flow rate of 1 mL/min and UV absorption at 254 nm was used for analysis. The retention time of berberine and berbamine was 7.84 min and 3.03 min, respectively. The cumulative amount of transport was determined using the corresponding peak area for berberine or berbamine. The cumulative amount of berberine or berbamine transported across the cell membrane was evaluated as a functionof time. The Papp was calculated by the following equation: […]

[9] = test system: Caco-2 cells; assay: as above; assay type: in vitro ADME, human
Experimental: as §5, §6, §7, §8

[10] = 14C-mannitol permeability (monolayer integrity) in MDCKII wild-type cells; assay type: in vitro ADME, Canine; settings: dog, MDCK, read-out: apparent permeability (Papp)
Experimental: (§9) The human intestinal epithelial cell line, LS-180 was purchased from American Type Culture Collection (ATCC) (Manassas, VA, USA) and grown in Minimum Essential Medium supplemented with 10% FBS. The Caco-2 cells were obtained from ATCC. MDCKII-MDR1 and MDCKII wild-type cell lines were a generous gift from Dr. Piet Borst (The Netherlands Cancer Research Institute). Both Caro-2 and MDCKII cells were grown in DMEM, 10% FBS, 0.1 mM non-essential amino acids, and 0.01% penicillin/streptomycin [38, 39]. […] For the transport experiments, cells were seeded, 3.0 × 10^5cells/well, onto 6-well Transwell® inserts 4.71 cm^2 (Corning Costar, Cambridge, MA, USA) and maintained until use on Days 21–25 (Caco-2, passages 23–30) and Days 6–7 (MDCKII-MDR1 and MDCKII wild-type). The integrity of the monolayers was assessed by measuring transepithelial electrical resistance (TEER) using a World Precision Instrument, EVOM (Sarasota, FL, USA) and evaluating ^14C-mannitol transport. […] For the real time RT-PCR, cells were seeded at 6 × 10^5 cells/well (Caco-2) and 1 × 10^6 cells/well (LS-180) onto 6-well Transwell® inserts 4.71 cm^2 and grown for 7 (Caco-2) and 6 (LS-180) days.

[11] = 14C-mannitol permeability (monolayer integrity) in Caco-2 cells; assay type: in vitro ADME, human; settings: human, Caco-2 cells, read-out: apparent permeability (Papp)
Experimental: as §9

[12] = test system: Caco-2 cells; assay: as above; assay type: in vitro ADME, human; settings: various treatment conditions, throughout the entire experiment
Experimental: as §9

[13] = 14C-mannitol permeability (monolayer integrity) in MDCKII-MDR1 cells; assay type: in vitro ADME, Canine; settings: dog, MDCK-MDR1, read-out: apparent permeability (Papp)
Experimental: as §9

[14] = test system: human MDR1 mRNA; assay: Real time RT-PCR of MDR1 mRNA in Caco-2 cells; assay type: cell-based; settings: 100 µM, positive control

Chain of P-glycoprotein (P08183 whole entry): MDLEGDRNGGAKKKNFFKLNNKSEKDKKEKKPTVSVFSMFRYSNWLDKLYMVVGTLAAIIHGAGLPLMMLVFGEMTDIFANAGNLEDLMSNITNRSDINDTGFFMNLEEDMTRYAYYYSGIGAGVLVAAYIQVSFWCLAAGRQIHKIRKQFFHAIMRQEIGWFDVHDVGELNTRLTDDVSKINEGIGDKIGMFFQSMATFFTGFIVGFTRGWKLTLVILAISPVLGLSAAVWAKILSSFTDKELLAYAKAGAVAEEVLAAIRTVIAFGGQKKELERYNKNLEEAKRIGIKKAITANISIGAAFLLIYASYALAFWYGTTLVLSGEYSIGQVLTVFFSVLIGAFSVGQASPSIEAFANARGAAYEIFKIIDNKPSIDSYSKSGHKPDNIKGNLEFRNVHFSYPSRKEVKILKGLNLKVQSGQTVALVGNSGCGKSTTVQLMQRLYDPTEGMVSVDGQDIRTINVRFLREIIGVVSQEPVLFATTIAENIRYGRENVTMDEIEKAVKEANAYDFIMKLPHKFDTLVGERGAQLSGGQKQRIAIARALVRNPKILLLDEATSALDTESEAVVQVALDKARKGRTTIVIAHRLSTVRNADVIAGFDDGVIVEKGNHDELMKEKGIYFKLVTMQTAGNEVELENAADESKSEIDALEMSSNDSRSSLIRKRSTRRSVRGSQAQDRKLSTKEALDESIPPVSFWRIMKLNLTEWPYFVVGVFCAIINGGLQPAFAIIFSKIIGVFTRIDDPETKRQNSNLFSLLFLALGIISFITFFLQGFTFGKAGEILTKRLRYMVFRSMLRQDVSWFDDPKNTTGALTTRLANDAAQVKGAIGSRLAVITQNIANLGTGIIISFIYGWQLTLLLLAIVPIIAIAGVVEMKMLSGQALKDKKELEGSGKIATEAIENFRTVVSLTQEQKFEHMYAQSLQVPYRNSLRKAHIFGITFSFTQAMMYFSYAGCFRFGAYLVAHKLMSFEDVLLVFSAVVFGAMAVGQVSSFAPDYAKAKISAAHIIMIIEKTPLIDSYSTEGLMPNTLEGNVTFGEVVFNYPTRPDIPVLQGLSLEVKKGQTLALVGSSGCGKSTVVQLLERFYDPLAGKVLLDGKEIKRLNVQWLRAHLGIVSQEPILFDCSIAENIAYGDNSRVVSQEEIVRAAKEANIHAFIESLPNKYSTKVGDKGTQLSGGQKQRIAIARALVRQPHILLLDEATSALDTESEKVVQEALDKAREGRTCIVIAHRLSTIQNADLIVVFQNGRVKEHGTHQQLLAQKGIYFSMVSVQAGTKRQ
T1 sequence (P08183 whole entry): as above

## COc1cccc2c1C(=O)c1c(O)c3c(c(O)c1C2=O)C[C@@](O)(C(C)=O)C[C@@H]3O[C@H]1C[C@H](N)[C@H](O)[C@H](C)O1 [daunomycin]
[1]
  inhibition of the efflux of 20 µM berberine: 100%

## COc1cc2c3cc1Oc1c(OC)c(OC)cc4c1[C@@H](Cc1ccc(O)c(c1)Oc1ccc(cc1)C[C@@H]3N(C)CC2)N(C)CC4 [Berbamine, berbamine dihydrochloride]
[2]
  efflux ratio at 3 h, 100 µM: 27.4 ± 5.1
[3]
  LDH assay: 43.88 ± 7.44%
[4]
  lowest concentration with significant decrease of B to A transport of 0.5 µM 3H-CsA: 30 µM
[5]; 0.03 µM
  MTT assay: □ (%MTT reduction is not significantly decreased compared with the negative control)
[5]; 0.3 µM
  MTT assay: □ (%MTT reduction is not significantly decreased compared with the negative control)
[5]; 30 µM
  MTT assay: □ (%MTT reduction is not significantly decreased compared with the negative control)
[5]; 100 µM
  MTT assay: □ (%MTT reduction is not significantly decreased compared with the negative control)
[5]; 150 µM
  MTT assay: □ (%MTT reduction is not significantly decreased compared with the negative control)
[5]; 300 µM
  MTT assay: 64.99 ± 11.46%
[5]; 300 µM, time-response 2, 4, 6, 8 hr, data not shown
  earliest time of significant increase in LDH leakage and decrease in MTT reduction: 2 h
[6]; 0.03 µM
  MTT assay: □ (%MTT reduction is not significantly decreased compared with the negative control)
[6]; 0.3 µM
  MTT assay: □ (%MTT reduction is not significantly decreased compared with the negative control)
[6]; 30 µM
  MTT assay: □ (%MTT reduction is not significantly decreased compared with the negative control)
[6]; 100 µM
  MTT assay: □ (%MTT reduction is not significantly decreased compared with the negative control)
[6]; 150 µM
  MTT assay: □ (%MTT reduction is not significantly decreased compared with the negative control)
[6]; 300 µM
  MTT assay: □ (%MTT reduction is not significantly decreased compared with the negative control)
[7]; 0.03 µM
  MTT assay: □ (%MTT reduction is not significantly decreased compared with the negative control)
[7]; 0.3 µM
  MTT assay: □ (%MTT reduction is not significantly decreased compared with the negative control)
[7]; 30 µM
  MTT assay: □ (%MTT reduction is not significantly decreased compared with the negative control)
[7]; 100 µM
  MTT assay: □ (%MTT reduction is not significantly decreased compared with the negative control)
[7]; 150 µM
  MTT assay: □ (%MTT reduction is not significantly decreased compared with the negative control)
[7]; 300 µM
  MTT assay: 64.32 ± 13.1%
[8]; Caco-2, 100 µM, Caco-2 cells, read-out: fold increase of Papp B to A compared with A to B
  efflux ratio at 3 h, 100 µM: ~30
[8]; Caco-2, Caco-2 cells, read-out: efflux ratio
  efflux ratio at 3 h, 100 µM: 24.2 ± 4.5
[8]; 100 µM, Caco-2 cells, read-out: Papp A to B direction
  Papp A→B at 3 h, 100 µM: 2.49 ×10⁻⁶ cm/s
[8]; 100 µM, Caco-2 cells, read-out: Papp B to A direction
  Papp B→A at 3 h, 100 µM: 60.3 ×10⁻⁶ cm/s
[9]; 100 µM, Caco-2 cells
  transport in the A to B direction: 0.39 nmol/min
  transport in the B to A direction: 5.94 nmol/min
[9]; Caco-2 and MDCKII-MDR1 cells
  extent of efflux relative to berberine: ~5 fold

## OC[C@@H](O)[C@@H](O)[C@H](O)[C@H](O)CO [mannitol]
[10]
  Papp: 2.16 ± 0.72 ×10⁻⁶ cm/s
[11]
  Papp: 2.09 ± 0.4 ×10⁻⁶ cm/s
[12]
  transport rate: less than 1 % per hour
[13]
  Papp: 2.38 ± 0.13 ×10⁻⁶ cm/s

## COC(=O)c1ccccc1-c1c2ccc(=N)cc-2oc2cc(N)ccc12 [rhodamine123]
[1]
  inhibition of the efflux of 20 µM berberine: 100%

## N[C@@H](Cc1cc(I)c(Oc2cc(I)c(O)c(I)c2)c(I)c1)C(=O)O [levothyroxine]
[14]
  P-gp (MDR1) mRNA: significantly increase
